In patent US20070213291A1, “Therapeutically useful synthetic oligonucleotides” (priority 1999, published 2007):

Tests used:
Type in all cases: cell-based
[1] = system: MCF-7 human breast cancer cells; assay: Inhibition of MCF-7 cell proliferation (MTT); details: 100 μg/ml, 48 h, 5×10^5 cells/ml
Protocol: (§1) Cells were seeded in 6 (1 ml/well), 24 (0.5 ml/well) or 96 (0.1 ml/well) well flat-bottom microplates and were maintained at 37° C. in a 5% CO2 atmosphere. Unless stated otherwise, 2.5×10^5 cells/ml were incubated with 0 μg/ml (control) and 100 μg/ml (treated) of 2 to 45 base sequences containing A, C, G and T for 48 h.
Cell proliferation was measured using dimethylthiazol-diphenyl-tetrazolium (MTT) reduction (Mosman et al. J. Immunol. Methods 65:55, 1983). MTT was measured at a wavelength of 570 nm using a multiplate spectrophotometer reader (ELX800, Bio-TEK Instruments Inc., Winooski, Vt.).
MCF-7 human breast cancer cells are a caspase 3 negative, estrogen-dependent human solid tumor model. MCF-7 cells (5×10^5 cells/ml) were incubated with 3 and 6 base GT sequences (Table 7).

[2] = system: Jurkat human leukemia T cells; assay: Inhibition of Jurkat human leukemia T cell proliferation (MTT reduction); details: 100 μg/ml sequence, 48 h, 2.5×10^5 cells/ml
Protocol: as §1
MTT was measured at a wavelength of 570 nm using a multiplate spectrophotometer reader (ELX800, Bio-TEK Instruments Inc., Winooski, Vt.).
Jurkat human leukemia T cells are an atypical multi-drug resistant human suspension tumor cell model.

[3] = system: THP-1 human acute monocytic leukemia cells; assay: Cytokine production by THP-1 cells (ELISA); details: THP-1, 1×10^6 cells, 100 μg/ml, 48 h; for ↑ IL-12 (fold increase treated vs control cells): p70 complex and free p40
Protocol: (§2) Unless stated otherwise, 1×10^6 cells were incubated with 100 μg/ml of each of the sequences tested for 48 h at 37° C. in 5% CO2. Production of cytokines IL-6, IL-10, IL-12, IL-1beta and TNF-alpha was determined in pg/ml in 100 μl of culture supernatant using the appropriate commercial ELISA (BioSource, Camarillo Calif.). The IL-12 ELISA measures both IL-12 p70 complex and free p40 subunit. Results are expressed as the “fold” (×) increase in cytokine production by treated cells compared to control cells.
THP-1 human acute monocytic leukemia cells were incubated with 2, 3, 6, 9, 12, 14, 15 and 18 base GT sequences and production of the cyotkine IL-6 was determined (Table 35).
THP-1 human acute monocytic leukemia cells were incubated with 6 base GT, AG, CG, GG, AGT and CGT sequences and production of the cytokines IL-12 and IL-6 was determined (Table 36).
THP-1 human acute monocytic leukemia cells were incubated with 6 base GT sequences, having either an oxygen (phosphodiester) or a sulfur (phosphorothioate) as the nonbridging atom on the phosphate groups and production of the cytokine IL-12 was determined (Table 39).
THP-1 human acute monocytic leukemia cells were incubated with 6 base GT SEQ ID NO:25, having either an oxygen (phosphodiester) or a sulfur (phosphorothioate) as the nonbridging atom on the phosphate groups and production of the cytokine IL-12 was determined (Table 40).

rhesus monkey PBMCs = assay: Cytokine production by rhesus monkey PBMC (ELISA); details: PBMC of 4 healthy rhesus monkeys, 100 μg/ml, 48 h
Protocol: as §2
PBMCs were isolated from 4 healthy rhesus monkeys as in Example 35. PBMCs were incubated with 6 base GT, AGT, CGT, AG, CG ands GG sequences and production of the cytokines IL-6, IL-12 and TNF-alpha was determined (Table 42).

chimpanzee PBMCs = assay: Cytokine production by chimpanzee PBMC (ELISA); details: PBMC of 4 healthy chimpanzees, 100 μg/ml, 48 h
Protocol: as §2
PBMCs were isolated from 4 healthy chimpanzees as in Example 35. Chimpanzee PBMCs were incubated with 6 base GT, AGT, CGT, AG, CG and GG sequences and production of the cytokines IL-10, IL-12 and TNF-alpha was determined (Table 41).

[4] = system: human peripheral blood mononuclear cells; assay: Cytokine production by human PBMC (ELISA); details: PBMC of 7 healthy humans, 100 μg/ml, 48 h
Protocol: as §2
Peripheral blood mononuclear cells (hereinafter, “PBMCs”) were isolated from 7 healthy humans by Ficoll-Hypaque (Amersham Pharmacia Biotech, Baie d'Urfée, Québec, Canada) by density gradient centrifugation of whole blood. PBMCs were incubated with 6 base GT, AGT, CGT, AG, CG and GG sequences and production of the cytokines IL-1beta, IL-6, IL-10 and IL-12 were determined.

[5] = system: Jurkat human leukemia T cells; assay: Cell cycle stage in Jurkat cells (propidium iodide flow cytometry); details: 24 h
Protocol: Cell cycle stage was determined using a […]™ PLUS DNA commercial kit (Becton Dickinson). Briefly, nuclei from cells were obtained by dissolving the cell membrane in a nonionic detergent, eliminating the cell cytoskeleton and nuclear proteins with trypsin, digesting the cellular RNA with RNase and stabilizing the nuclear chromatin with spermine. Propidium iodide was added to the cell nuclei and their fluorescence was analyzed in a flow cytometer equipped with electronic doublet discrimination capability (FACSCalibur, Becton Dickinson, San Jose, Calif.). Accumulation of cells in G0/G1, early S (SE), mid S (SM), late S (SL) or G2/M phases of the cell cycle was analyzed using MODFIT LT software (Verity Software House Inc., Topsham, Mass.).
Exponentially growing Jurkat human leukemia T cells (Table 28) and MCF-7 human breast cancer cells (5×10^5 cells/ml) (Table 29) were incubated for 24 h with 2, 6, 15, 18, 27 and 45 base sequences containing A, C, G and T. The cells were collected and centrifuged and cell cycle stage was determined.
Jurkat human cell leukemia T cells (1×10^6 cells/ml) were incubated for 24 h with 6 base GT SEQ ID NO:25, conplementary 6 base AC SEQ ID NO:79 and 6 base GT SEQ ID NO:25+6 base AC SEQ ID NO:79. GT SEQ ID NO:25 and AC SEQ ID NO:79 were hybridized by mixing the oligonucleotides (1:1) and heating for 10 minutes at 65° C. As controls, GT SEQ ID NO:25 and AC SEQ ID NO:79 were heated for 10 minutes at 65° C. (Table 30).

[6] = system: Jurkat human leukemia T cells; assay: NuMA release into supernatant (ELISA); details: for % NUMA RELEASED: Jurkat 1×10^6/ml
Protocol: The redistribution of phosphatidylserine in the plasma membrane during apoptosis was measured by flow cytometry using FITC-conjugated annexin V (BD Pharmingen, San Diego, Calif.). NuMA release into the supernatant was determined using a commercial ELISA kit (Oncogen/Calbiochem, Cambridge, Mass.).
Jurkat human leukemia T cells were incubated with 50 μM of 3, 4, 5, 6 and 7 GT base sequences, a 5 base ACGT sequence, 6 base AG, GG, AGT and CGT sequences and a 7 base GG sequence.
Jurkat human leukemia T cells (1×10^6/ml) were incubated with 6 and 27 GT base sequences (Table 32). NuMA was determined as in Example 23.
Jurkat human cell leukemia T cells were incubated for 24 h with 6 base GT SEQ ID NO:25, complementary 6 base AC SEQ ID NO:79, and 6 base GT SEQ ID NO:25+6 base AC SEQ ID NO:79. GT SEQ ID NO:25 and AC SEQ ID NO:79 were hybridized by mixing the sequences (1:1) and heating for 10 minutes at 65° C. As controls, GT SEQ ID NO:25 and AC SEQ ID NO:79 were heated for 10 minutes at 65° C. (Table 33). Apoptosis was evaluated as in Example 23.

[7] = Jurkat 1×10^6 cells/ml, sequences heated 10 minutes at 65° C.

Substance | % INHIBITION of MCF-7 human breast cancer cell proliferation [1] | % INHIBITION of Jurkat human leukemia T cell proliferation [2] | ↑ IL-12 (fold increase treated vs control cells) [3] | % of cells in phase: G0/G1 ([5]; Jurkat, 100 μg/ml) | % of cells in phase: G2/M ([5]; Jurkat, 100 μg/ml) | % of cells in phase: SE ([5]; Jurkat, 100 μg/ml) | % of cells in phase: SL ([5]; Jurkat, 100 μg/ml) | % of cells in phase: SM ([5]; Jurkat, 100 μg/ml) | Arrest (cell cycle) ([5]; Jurkat, 100 μg/ml) | also measured
GsGoGoToGoGs | 12% | 16% | −0.1x |  |  |  |  |  |  | 
GsGsGoToGsGs | −3% | −13% | 0 x |  |  |  |  |  |  | 
GoGsGoToGsGo | 13% | 11% | −0.1x |  |  |  |  |  |  | 
GoGoGsToGoGo | 12% | 17% | 0.1 x |  |  |  |  |  |  | 
GoGoGoTsGoGo | 0% | 12% | 0.2x |  |  |  |  |  |  | 
GGAAGG (unmodified DNA) [SEQ ID NO:42] |  | 22% | 4.1x | 48.0% | 34.1% | 19.8% | 5.8% | 8.5% | End | IL-10 fold increase: mean +/− SD (rhesus monkey PBMCs): 1.2 +/− 0.2 fold increase; IL-12 fold increase: mean +/− SD (rhesus monkey PBMCs): 11.9 +/− 5.4 fold increase; TNF-alpha fold increase: mean +/− SD (rhesus monkey PBMCs): 16.5 +/− 4.5 fold increase; IL-10 fold increase: mean +/− SD (chimpanzee PBMCs): 9.9 +/− 8.9 fold increase; IL-12 fold increase: mean +/− SD (chimpanzee PBMCs): 15.6 +/− 10.6 fold increase; TNF-alpha fold increase: mean +/− SD (chimpanzee PBMCs): 14.4 +/− 7.1 fold increase; ↑ IL-6 (fold increase treated vs control cells) [3]: 29.2x; IL-1 beta fold increase: mean +/− SD [4]: 3.5 +/− 3.9 fold increase; IL-6 fold increase: mean +/− SD [4]: 11.8 +/− 5.8 fold increase; IL-10 fold increase: mean +/− SD [4]: 1.1 +/− 0.2 fold increase; IL-12 fold increase: mean +/− SD [4]: 3.0 +/− 2.7 fold increase
GGGTGGGTGGGTGGGTGGGTGGGTGGG [SEQ ID NO:2] |  | 23% |  | 34.3% | 26.4% | 15.5% | 10.3% | 13.6% | None | % NUMA RELEASED [6]: 49%
GGCCGG [SEQ ID NO:43] |  | 29% | 3.1x | 26.5% | 18.7% | 21.3% | 10.7% | 22.8% | End SM | IL-10 fold increase: mean +/− SD (rhesus monkey PBMCs): 1.0 +/− 0.2 fold increase; IL-12 fold increase: mean +/− SD (rhesus monkey PBMCs): 11.7 +/− 4.8 fold increase; TNF-alpha fold increase: mean +/− SD (rhesus monkey PBMCs): 16.9 +/− 3.5 fold increase; IL-10 fold increase: mean +/− SD (chimpanzee PBMCs): 13.6 +/− 9.0 fold increase; IL-12 fold increase: mean +/− SD (chimpanzee PBMCs): 15.1 +/− 10.2 fold increase; TNF-alpha fold increase: mean +/− SD (chimpanzee PBMCs): 14.0 +/− 6.6 fold increase; ↑ IL-6 (fold increase treated vs control cells) [3]: 17.1x; IL-1 beta fold increase: mean +/− SD [4]: 1.5 +/− 0.9 fold increase; IL-6 fold increase: mean +/− SD [4]: 14.9 +/− 10.2 fold increase; IL-10 fold increase: mean +/− SD [4]: 1.2 +/− 0.3 fold increase; IL-12 fold increase: mean +/− SD [4]: 2.5 +/− 2.0 fold increase
GGGGGTGGGGGTGGGGGTGGGGGTGGG (unmodified DNA) [SEQ ID NO:3] |  | 24% |  | 40.5% | 23.6% | 13.3% | 9.7% | 12.9% | None | % NUMA RELEASED [6]: 139%
CC(AC)1CC (DNA CCACCC; unmodified DNA) [SEQ ID NO:79] |  |  |  |  |  |  |  |  |  | % NuMA released (untreated vs treated cells) ([6]; Jurkat, 24 h, sequences heated 10 minutes at 65° C.): 9%; % cells in phase: G0/G1 [5, 7]: 36.0%; % cells in phase: G2/M [5, 7]: 30.5%; % cells in phase: SE [5, 7]: 10.4%; % cells in phase: SL [5, 7]: 9.7%; % cells in phase: SM [5, 7]: 13.4%; Arrest (cell cycle) [5, 7]: had no effect on the cell cycle and None
GoGoGsTsGoGo | 43% | 13% | 0.5x |  |  |  |  |  |  | 
